US9814787B2, “Luciferin amides” (University of Massachusetts, priority 2013, dated 2017)

What was measured:
pig liver esterase (PLE) = test: Treatment of luciferin amides with pig liver esterase, then R218K luciferase, bioluminescence; format: biochemical; settings: 50 μM luciferin amide, PLE and PLE 1:10, one hour at room temperature
Method: (§1) Three luciferin amides (50 μM), i.e., Compounds 2, 9, and 25, were treated with a buffer alone, a buffer containing FAAH, a buffer containing FAAH 1:10 (i.e., a ten-fold dilution of FAAH), a buffer containing pig liver esterase (PLE), or a buffer containing PLE 1:10 (i.e., a ten-fold dilution of PLE). After one hour at room temperature, R218K luciferase was added at a concentration of 3 μg/mL and bioluminescence was detected on a Turner Veritas.

FAAH [1] = target: T1, FAAH (Homo sapiens, UniProt O00519); test: In vitro FAAH assay: luciferin amide treated with recombinant FAAH, then R218K luciferase, bioluminescence; format: biochemical; settings: 50 μM luciferin amide; for effect of ten-fold dilution of FAAH on bioluminescent signal: FAAH vs FAAH 1:10, one hour at room temperature; for increase in bioluminescence signal on addition of FAAH versus buffer: 10 minutes at room temperature, R218K luciferase 3 μg/mL
T1 construct: purchased Cayman Chemical
T1 sequence (O00519 1-579): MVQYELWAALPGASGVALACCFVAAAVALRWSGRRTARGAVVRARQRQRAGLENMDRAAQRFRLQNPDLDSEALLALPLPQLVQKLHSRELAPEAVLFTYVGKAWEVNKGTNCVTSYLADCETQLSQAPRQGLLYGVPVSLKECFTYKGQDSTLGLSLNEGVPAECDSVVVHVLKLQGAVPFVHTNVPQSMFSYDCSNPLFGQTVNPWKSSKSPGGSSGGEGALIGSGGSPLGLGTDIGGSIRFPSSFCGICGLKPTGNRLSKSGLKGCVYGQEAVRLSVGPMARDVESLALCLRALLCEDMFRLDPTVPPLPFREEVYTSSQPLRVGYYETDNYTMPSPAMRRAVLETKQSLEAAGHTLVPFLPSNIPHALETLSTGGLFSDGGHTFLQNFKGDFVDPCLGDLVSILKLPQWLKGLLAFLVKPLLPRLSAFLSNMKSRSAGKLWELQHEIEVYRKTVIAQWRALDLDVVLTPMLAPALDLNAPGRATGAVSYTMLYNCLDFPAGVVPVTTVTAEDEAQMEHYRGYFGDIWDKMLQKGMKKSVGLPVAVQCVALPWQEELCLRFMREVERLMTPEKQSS
Method: Recombinant FAAH, FAAH assay buffer, and FAAH inhibitors URB-597, PF-750, and PF-3845 were purchased from Cayman Chemical.
Bioluminescence assays were performed in either a Turner Veritas luminometer or a Xenogen IVIS-100 imaging system. For Veritas experiments, white 96-well plates were used (Costar 3912). For IVIS experiments, black 96-well plates were used (Costar 3915).
(§2) Luciferin amides (50 μM) were treated with FAAH and FAAH buffer (Cayman Chemical) in the presence or absence of 50 μM FAAH inhibitor URB-597 or 50 μM luciferase inhibitor 2-(4′-methoxyphenyl)benzothiazole. After 10 minutes at room temperature, R218K mutant firefly luciferase was added at a concentration of 3 μg/mL and bioluminescence was detected on a Turner Veritas luminometer.
(§3) Four luciferin amides (50 μM), i.e., Compounds 1, 9, 10, and 25, were treated with a buffer alone, a buffer containing FAAH, a buffer containing FAAH+50 μM URB-597 (i.e., a FAAH inhibitor), or a buffer containing FAAH+50 μM luciferase inhibitor 2-(4′-methoxyphenyl)benzothiazole. After 10 minutes at room temperature, R218K luciferase was added at a concentration of 3 μg/mL and bioluminescence was detected on a Turner Veritas.
as §1

[2] = system: FVB mice expressing luciferase in brain tissue; test: In vivo bioluminescence imaging in brains of FVB mice injected with AAV9-luc+ in the striatum
Method: (§4) FVB mice were injected with AAV9-luc+ in the brain striatum. Bioluminescence assays were performed approximately nine months after AAV injection. Each luciferin amide was diluted into PBS to the indicated concentration from a 50 mM DMSO stock solution and filtered (0.22 μm) prior to intraperitoneally injection (0.1 mL per mouse). Mice were anesthetized with isoflurane (2% in 1 L/min oxygen) and images acquired on a Xenogen IVIS 100 imaging system and analyzed with Living Image software.
Certain luciferin amides described herein were tested to determine whether they would image well in live mice. For these studies, FVB mice were injected with adeno-associated virus 9 (AAV9)-luciferase constructs into the brain striatum.
Bioluminescence imaging (BLI) in the brain is more challenging than imaging in the rest of the organism, in part because a luciferase substrate (i.e., a luciferin) must cross the blood-brain barrier. Therefore, the ability of a synthetic luciferin (i.e., Compound 9's corresponding luciferin (CycLuc1)) to allow bioluminescence imaging in these mice, as compared to the native firefly luciferase substrate (i.e., D-luciferin) was first tested. Specifically, each substrate was injected intraperitoneally (IP) in PBS at a volume of 0.1 mL, D-luciferin being at a concentration of 100 mM and CycLuc1 being at a concentration of 5 mM. […] CycLuc1 was then injected at a 320-fold lower dose (0.06 mL of 0.5 mM) than D-luciferin.
Specifically, Compound 9 (i.e., CycLuc1 amide) was injected at 0.5 mM in 0.5% DMSO/PBS (0.06 mL).
In this figure, mice in the top row were treated with luciferin amides in the amounts indicated in the figure, and the mice in the bottom row were the same mice that were imaged one day later using a standard dose of D-luciferin.

[3] = target: R218K mutant firefly luciferase (Photinus pyralis, UniProt P08659, R218K); test: In vitro FAAH assay in presence of luciferase inhibitor 2-(4′-methoxyphenyl)benzothiazole; format: biochemical; settings: 50 μM luciferase inhibitor, 50 μM luciferin amide
Method: as §2
as §3, with “Veritas. […] These bioluminescence signals were inhibited by more than 100-fold by treatment with the FAAH inhibitor URB-597.” for “Veritas.”

FAAH [4] = target: T2, FAAH (Mus musculus, UniProt O08914); test: In vivo FAAH inhibition assay with PF-3845; parameters: species or system mice
T2 construct: metabolized into CycLuc1 by endogenous FAAH activity; from tissue; host or cells: brain (striatum) of live FVB mice expressing AAV9-delivered luciferase
T2 sequence (O08914 1-579): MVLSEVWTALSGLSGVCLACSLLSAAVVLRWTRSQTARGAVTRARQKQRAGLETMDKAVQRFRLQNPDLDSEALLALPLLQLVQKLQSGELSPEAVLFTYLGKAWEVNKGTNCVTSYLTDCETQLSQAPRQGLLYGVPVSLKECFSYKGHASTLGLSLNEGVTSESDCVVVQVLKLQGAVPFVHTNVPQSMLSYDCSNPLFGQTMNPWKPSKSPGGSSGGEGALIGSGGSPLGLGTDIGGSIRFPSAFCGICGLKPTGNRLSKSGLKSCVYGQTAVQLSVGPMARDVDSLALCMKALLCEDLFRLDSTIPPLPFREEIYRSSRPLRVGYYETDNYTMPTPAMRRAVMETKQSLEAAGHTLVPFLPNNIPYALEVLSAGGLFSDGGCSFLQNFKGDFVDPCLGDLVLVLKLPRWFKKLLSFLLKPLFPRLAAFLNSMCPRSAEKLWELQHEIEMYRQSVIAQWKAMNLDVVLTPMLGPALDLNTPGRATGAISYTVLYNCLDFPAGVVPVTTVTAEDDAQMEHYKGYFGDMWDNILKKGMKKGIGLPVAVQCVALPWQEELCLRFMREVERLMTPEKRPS
Method: as §4
Mice were injected intraperitoneally with 1 mg/mL of a specific FAAH inhibitor PF-3845 dissolved in 18:1:1 PBS:ethanol:emulphor (0.1 mL), or with an equal volume of 18:1:1 PBS:ethanol:emulphor control vehicle. Thirty minutes after injection, the mice were imaged as described above.
FAAH is highly expressed in most tissues, particularly in the brain. To determine whether the luciferin amides are cleaved exclusively by FAAH in the brain tissue, eight FVB mice expressing AAV9-luciferase in the striatum were divided into two groups: (1) four mice were injected IP with 1 mg/mL of a specific FAAH inhibitor PF-3845 dissolved in 18:1:1 PBS:ethanol:emulphor (0.1 mL), and (2) four mice were treated with an equal volume of 18:1:1 PBS:ethanol:emulphor control vehicle without PF-3845. After 30 minutes, one mouse from each group was IP injected with 5 mM CycLuc1 (i.e., Compound 9's corresponding luciferin) in PBS (0.1 mL), and three were injected with 0.1 mM Compound 5 in 0.2% DMSO/PBS (0.1 mL). The mice were imaged 10 minutes after substrate injection. Mice in the right panel were group (1) (i.e., treated with a FAAH inhibitor) and mice in the left panel were from group (2) (i.e., without being treated with a FAAH inhibitor).

[5] = 0.06 mL of 0.5 mM in 0.5% DMSO/PBS

R218K mutant firefly luciferase, sequence (P08659 whole entry R218K): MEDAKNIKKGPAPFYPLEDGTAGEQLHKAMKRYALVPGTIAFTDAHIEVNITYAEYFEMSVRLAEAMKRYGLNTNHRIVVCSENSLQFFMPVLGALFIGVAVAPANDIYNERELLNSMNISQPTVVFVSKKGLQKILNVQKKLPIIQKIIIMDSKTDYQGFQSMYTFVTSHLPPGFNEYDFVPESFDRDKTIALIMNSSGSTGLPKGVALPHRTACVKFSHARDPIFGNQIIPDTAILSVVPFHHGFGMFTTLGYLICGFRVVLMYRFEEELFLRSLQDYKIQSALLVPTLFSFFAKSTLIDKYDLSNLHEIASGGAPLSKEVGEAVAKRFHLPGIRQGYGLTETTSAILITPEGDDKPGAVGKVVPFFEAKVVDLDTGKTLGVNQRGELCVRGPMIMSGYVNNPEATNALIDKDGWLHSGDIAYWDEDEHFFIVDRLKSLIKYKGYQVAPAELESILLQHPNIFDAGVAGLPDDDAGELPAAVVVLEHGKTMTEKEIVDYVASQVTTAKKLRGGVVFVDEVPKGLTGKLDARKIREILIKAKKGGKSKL

| total photon flux (FAAH [4]; 5 mM in PBS (0.1 mL) IP, groups (1) PF-3845 and (2) vehicle, 10 minutes after substrate) | change of light output by FAAH inhibitor PF-3845 (group 1 vs group 2) (FAAH [4]; PF-3845 1 mg/mL (0.1 mL) IP 30 minutes before substrate) | Structure (SMILES) | bioluminescence signal after treatment with PLE (pig liver esterase (PLE)) | effect of ten-fold dilution of FAAH on bioluminescent signal (FAAH [1]) | light emission relative to an equivalent dose of CycLuc1 [2, 5] | light emission relative to the 5 mM CycLuc1 dose [2, 5] | brain bioluminescence signal relative to D-luciferin (0.1 mL of 100 mM) ([2]; 0.06 mL of 0.5 mM, 320-fold lower dose) | inhibition of the signal by luciferase inhibitor 2-(4′-methoxyphenyl)benzothiazole [3] [fold] | increase in bioluminescence signal on addition of FAAH versus buffer (FAAH [1]) [fold] | light emission in brains of live mice (qualitative) ([2]; mouse, in vivo) | persistence of signal relative to D-luciferin ([2]; 0.06 mL of 0.5 mM) | duration of signal ([2]; IP, 0.1 mL of 5 mM) | time of peak signal ([2]; IP, 0.1 mL of 5 mM) [min] | brain bioluminescence signal relative to D-luciferin (0.1 mL of 100 mM) ([2]; IP, 0.1 mL of 5 mM in PBS, 20-fold lower dose) |
| --- | --- | --- | --- | --- | --- | --- | --- | --- | --- | --- | --- | --- | --- | --- |
|  |  | CN(C)c1ccc2nc(C3=N[C@@H](C(N)=O)CS3)sc2c1 [Compound 2, (S)-2-(6-(dimethylamino)benzo[d]thiazol-2-yl)-4,5-dihydrothiazole-4-carboxamide] | failed to elicit a bioluminescence signal | corresponding reduction in the intensity of the bioluminescent signal |  |  |  |  |  |  |  |  |  |  |
|  |  | NC(=O)[C@H]1CSC(c2nc3cc4c(cc3s2)NCC4)=N1 [Compound 9, (S)-4,5-dihydro-2-(6,7-dihydro-5H-thiazolo[4,5-f]indol-2-yl)thiazole-4-carboxamide] | failed to elicit a bioluminescence signal | corresponding reduction in the intensity of the bioluminescent signal | exceeded that obtained from an equivalent dose of CycLuc1 itself | nearly equaling to the light emission obtained from the 5 mM CycLuc1 dose | over an order of magnitude greater | 2.3 | 8972 |  |  |  |  |  |
|  |  | NC(=O)[C@H]1CSC(c2nc3ccc(O)cc3s2)=N1 [Compound 25, (S)-4,5-dihydro-2-(6-hydroxybenzothiazol-2-yl)thiazole-4-carboxamide] | failed to elicit a bioluminescence signal | corresponding reduction in the intensity of the bioluminescent signal |  |  |  | 14.5 | 269 | relatively weak light emission |  |  |  |  |
| 9×10^6 p/s | unchanged | O=C(O)[C@H]1CSC(c2nc3cc4c(cc3s2)NCC4)=N1 [CycLuc1, reference compound] |  |  |  |  |  |  |  |  | persisted for a longer time | over 2 hours | ~10 | an order of magnitude higher signal than D-luciferin |
